What all share (assay type): cell-based, human
Assay [1] deals with Wnt signaling pathway, SW480 cell line. Kind of assay: Western blotting of LRP6 and β-catenin proteins with signal densitometry. The conditions noted are these: SW480, Western blot signal densitometry. The method, then:
(§1) In this example, the effect of exemplary peptides on the expression of LRP6 and downstream genes of the Wnt signaling pathway, such as β-catenin, cyclin D1, and C-MYC, was evaluated at transcription level using real-time PCR and at translation level using Western blotting. The Gapdh gene was used as the reference gene. The expression fold change of more than 2 times (treated cell against untreated cell) was defined as increasing expression, and cases with a fold change of 0.5 to 2 were unchanged, and cases with expression fold change less than 0.5 were considered as a reduction in expression.
(§2) Also, the effect of exemplary peptides on the levels of LRP6 and β-catenin proteins in the β-catenin/Wnt signaling pathway was investigated by Western blotting. Also, each protein's relative expression was determined through signal densitometry of each Western blot band.
(In general: A western blot detects proteins with antibodies after separation by electrophoresis.)

The test system of assay [2] is Wnt signaling pathway, HCT116 cell line. The assay is described as above. Particulars: HCT116, Western blot signal densitometry. The method, then:
as §1, §2

Assay [3] deals with HCT116. As to the kind of experiment: Annexin V/PI flow cytometry apoptosis assay. The conditions noted are these: 24 hours, p<0.05; for cell death compared with HUVEC cell line: HCT116, 1 mM. The method, then: (§3) In this example, the apoptotic effect of exemplary peptides on cancer cells was examined by analyzing the number of apoptotic cells in HCT116 and SW480 and HUVEC cell lines before and after treatment with 1 mM of each exemplary peptide for 24 hours. Annexin V and propidium iodide (PI) staining were used to evaluate the apoptosis induced by treatment with exemplary peptides in each cell line. Stained cells may be counted by flow cytometry to calculate the percentage of apoptosis (Annexin V positive and PI negative) and necrosis percentage (Annexin V positive and […]) for each cell line.
(§4) The percentage of Annexin V positive and PI negative cells were considered early apoptosis, and the percentage of both Annexin positive and PI-positive cells was considered late apoptosis and necrosis. The sum of these two groups of cells was considered as the cell death rate.
(In general: A flow cytometer gives signals particle by particle.)

Assay [4] concerns SW480. Kind of assay: Annexin V/PI flow cytometry apoptosis assay. The conditions noted are these: 24 hours, p<0.05; for cell death compared with HUVEC cell line: SW480, 1 mM; for cell death of SW480 compared with HCT116 cell line: 1 mM. The protocol: as §3, §4
For assay [5], the system named is Wnt signaling pathway, SW480 cell line. Kind of assay: Real-time PCR of LRP6 and downstream genes of the Wnt signaling pathway. The conditions noted are these: treated against untreated. The protocol:
as §1

For assay [6], the system named is Wnt signaling pathway, HCT116 cell line. The assay is described as above. Particulars: treated against untreated. The protocol: as §1
In assay [7] the test system is Wnt signaling pathway, HUVEC cell line. The description is as above. Particulars: treated against untreated. The method, then:
as §1

The test system is the same in assay [8]. Kind of assay: Western blotting of LRP6 and β-catenin proteins with signal densitometry. Particulars: Western blot signal densitometry. The method, then:
as §1
Also, the effect of exemplary peptides on the levels of LRP6 and β-catenin proteins in the β-catenin/Wnt signaling pathway was investigated by Western blotting. Also, each protein's relative expression was determined through signal densitometry of each Western blot band. FIG. 11A illustrates relative expression β-actin, β-catenin, and LRP6 in SW480, HCT116, and HUVEC cell lines, consistent with one or more exemplary embodiments of the present disclosure. Referring to FIG. 11A, the relative expressions of β-catenin and LRP6 in SW480 and HCT116 were higher than HUVEC as a normal cell.

Where a SMILES comes first, the peptide text is derived from it. Bridges are numbered along the chain shown (N, C = ends). Where no end group is shown, it is not given here.

Regarding `CC[C@H](C)[C@H](NC(=O)[C@H](CCC(=O)O)NC(=O)[C@H](CC(C)C)NC(=O)CNC(=O)[C@H](Cc1c[nH]cn1)NC(=O)[C@H](CO)NC(=O)CNC(=O)[C@H](CCCCN)NC(=O)[C@H](CCCNC(=N)N)NC(=O)[C@H](CCCNC(=N)N)NC(=O)[C@H](Cc1c[nH]cn1)NC(=O)[C@H](CCCCN)NC(=O)[C@@H](NC(=O)[C@H](CS)NC(=O)[C@@H](NC(=O)[C@@H](N)CCC(N)=O)C(C)C)[C@@H](C)O)C(=O)N[C@@H](Cc1ccccc1)C(=O)N[C@@H](CCC(N)=O)C(=O)N[C@@H](CCCNC(=N)N)C(=O)N[C@@H](CS)C(=O)N[C@@H](Cc1ccc(O)cc1)C(=O)O` [Pep-2] (H-QVCTKHRRKGSHGLEIFQRCY-OH; N-terminus and C-terminus assumed), the “decrease of β-catenin protein level” value in assay [1] and in assay [2] was 20% in each case. Further, the “cell death rate of HCT116 compared with SW480” value in assay [3] (1 mM) is given as “significantly higher”. The “cell death compared with HUVEC cell line” value in assay [3] and in assay [4] was “significantly higher” each time. The “expression of C-MYC gene” value in assay [5] is given as “reduced”; in assay [6], “reduced”; in assay [7], “did not change”. The “expression of LRP6 gene” value in assay [5], in assay [6] and in assay [7] was “did not change” in each case. Moreover, the “expression of cyclin D1 gene” value in assay [5] is listed as “reduced”; in assay [6] it was “reduced”; in assay [7], “did not change”. Further, the “expression of β-catenin gene” value in assay [5] was “reduced”; in assay [6], “reduced”; in assay [7] it was “did not change”.
On to NSSSLSSGSGNNANGNFLTYY [Pep-1], for which, in assay [1], the “decrease of β-catenin protein level” value is given as “no significant effect”. Further, the “decrease of β-catenin protein level” value in assay [2] is recorded as “no significant effect”. Also, the “cell death compared with HUVEC cell line” value in assay [3] is recorded as “significantly higher”. Further, in assay [4], the “cell death of SW480 compared with HCT116 cell line” value is recorded as “significantly higher” and the “cell death compared with HUVEC cell line” value is given as “significantly higher”. The “effect on β-catenin protein content” value in assay [8] is on record as “no significant effect”. For the same molecule, in assay [5], the “expression of C-MYC gene” value was “did not change”, the “expression of LRP6 gene” value is reported as “did not change”, the “expression of cyclin D1 gene” value is reported as “did not change” and the “expression of β-catenin gene” value was “did not change”. Also, in assay [6], the “expression of C-MYC gene” value was “did not change”, the “expression of LRP6 gene” value is listed as “did not change”, the “expression of cyclin D1 gene” value is reported as “did not change” and the “expression of β-catenin gene” value is listed as “did not change”. For the same molecule, in assay [7], the “expression of C-MYC gene” value is reported as “did not change”, the “expression of LRP6 gene” value is reported as “did not change”, the “expression of cyclin D1 gene” value is given as “did not change” and the “expression of β-catenin gene” value is on record as “did not change”.
In the case of NGYITFQDGNDYFRFPLNN [Pep-3], the “decrease of β-catenin protein level” value in assay [1] and in assay [2] was “no significant effect” in each case. In addition, the “effect on β-catenin protein content” value in assay [8] is reported as “no significant effect”. For the same molecule, the “expression of C-MYC gene” value in assay [5], in assay [6] and in assay [7] was “did not change” each time. Besides, the “expression of LRP6 gene” value in assay [5], in assay [6] and in assay [7] was “did not change” throughout. Also, the “expression of cyclin D1 gene” value in assay [5], in assay [6] and in assay [7] was “did not change” each time. Moreover, the “expression of β-catenin gene” value in assay [5], in assay [6] and in assay [7] was “did not change” each time.
With `CC[C@H](C)[C@@H]1NC(=O)[C@H](CCCCN)NC(=O)[C@H](CO)NC(=O)[C@H](Cc2c[nH]c3ccccc23)NC(=O)[C@H](Cc2ccccc2)NC(=O)[C@H](Cc2c[nH]cn2)NC(=O)[C@H](CCCNC(=N)N)NC(=O)[C@H](C)NC(=O)[C@H](CS)NC(=O)[C@@H](N)CSSC[C@@H](C(=O)O)NC1=O` [Pep-4] (H-CCARHFWSKIC-OH; disulfide 1-11), the “decrease of β-catenin protein level” value in assay [1] is given as 20%. Further, the “decrease of β-catenin protein level” value in assay [2] is 20%. Besides, in assay [4], the “cell death of SW480 compared with HCT116 cell line” value was “significantly higher” and the “cell death compared with HUVEC cell line” value is on record as “significantly higher”. Moreover, in assay [5], the “expression of C-MYC gene” value is “reduced”, the “expression of LRP6 gene” value was “did not change”, the “expression of cyclin D1 gene” value is reported as “reduced” and the “expression of β-catenin gene” value is given as “reduced”. Also, in assay [6], the “expression of C-MYC gene” value was “reduced”, the “expression of LRP6 gene” value is reported as “did not change”, the “expression of cyclin D1 gene” value was “reduced” and the “expression of β-catenin gene” value is “reduced”. Also, in assay [7], the “expression of C-MYC gene” value is on record as “have not changed”, the “expression of LRP6 gene” value was “have not changed”, the “expression of cyclin D1 gene” value is given as “have not changed” and the “expression of β-catenin gene” value is “have not changed”.

B1: Wnt5a: Wnt5a, effective ligand for non-canonical Wnt signaling pathway, positive control (protein, UniProt P41221 62-380, looked up)
Protein Wnt-5a: IIGAQPLCSQLAGLSQGQKKLCHLYQDHMQYIGEGAKTGIKECQYQFRHRRWNCSTVDNTSVFGRVMQIGSRETAFTYAVSAAGVVNAMSRACREGELSTCGCSRAARPKDLPRDWLWGGCGDNIDYGYRFAKEFVDARERERIHAKGSYESARILMNLHNNEAGRRTVYNLADVACKCHGVSGSCSLKTCWLQLADFRKVGDALKEKYDSAAAMRLNSRGKLVQVNSRFNSPTTQDLVYIDPSPDYCVRNESTGSLGTQGRLCNKTSEGMDGCELMCCGRGYDQFKTVQTERCHCKFHWCCYVKCKKCTEIVDQFVCK
For B1, in assay [5], the “expression of C-MYC gene” value is “did not change”, the “expression of LRP6 gene” value is “did not change”, the “expression of cyclin D1 gene” value was “did not change” and the “expression of β-catenin gene” value was “did not change”. Also, in assay [6], the “expression of C-MYC gene” value was “did not change”, the “expression of LRP6 gene” value is listed as “did not change”, the “expression of cyclin D1 gene” value is “did not change” and the “expression of β-catenin gene” value was “did not change”. Moreover, in assay [7], the “expression of C-MYC gene” value was “did not change”, the “expression of LRP6 gene” value was “did not change”, the “expression of cyclin D1 gene” value is on record as “did not change” and the “expression of β-catenin gene” value was “did not change”.

Values taken from patent US11572394B2, “Peptides for targeting LRP6-overexpressed cells” (PASTEUR INSTITUTE OF IRAN, priority 2020, dated 2023).
